These results are taken from patent US9221796B2, “Selective NR2B antagonists” (BRISTOL-MYERS SQUIBB COMPANY, priority 2014, dated 2015).

pKi: −log10 of the molar value. Bounds are passed on as bounds.

Chain of NR2B-subtype NMDA receptors (Q00960 27-1482, other chains not shown): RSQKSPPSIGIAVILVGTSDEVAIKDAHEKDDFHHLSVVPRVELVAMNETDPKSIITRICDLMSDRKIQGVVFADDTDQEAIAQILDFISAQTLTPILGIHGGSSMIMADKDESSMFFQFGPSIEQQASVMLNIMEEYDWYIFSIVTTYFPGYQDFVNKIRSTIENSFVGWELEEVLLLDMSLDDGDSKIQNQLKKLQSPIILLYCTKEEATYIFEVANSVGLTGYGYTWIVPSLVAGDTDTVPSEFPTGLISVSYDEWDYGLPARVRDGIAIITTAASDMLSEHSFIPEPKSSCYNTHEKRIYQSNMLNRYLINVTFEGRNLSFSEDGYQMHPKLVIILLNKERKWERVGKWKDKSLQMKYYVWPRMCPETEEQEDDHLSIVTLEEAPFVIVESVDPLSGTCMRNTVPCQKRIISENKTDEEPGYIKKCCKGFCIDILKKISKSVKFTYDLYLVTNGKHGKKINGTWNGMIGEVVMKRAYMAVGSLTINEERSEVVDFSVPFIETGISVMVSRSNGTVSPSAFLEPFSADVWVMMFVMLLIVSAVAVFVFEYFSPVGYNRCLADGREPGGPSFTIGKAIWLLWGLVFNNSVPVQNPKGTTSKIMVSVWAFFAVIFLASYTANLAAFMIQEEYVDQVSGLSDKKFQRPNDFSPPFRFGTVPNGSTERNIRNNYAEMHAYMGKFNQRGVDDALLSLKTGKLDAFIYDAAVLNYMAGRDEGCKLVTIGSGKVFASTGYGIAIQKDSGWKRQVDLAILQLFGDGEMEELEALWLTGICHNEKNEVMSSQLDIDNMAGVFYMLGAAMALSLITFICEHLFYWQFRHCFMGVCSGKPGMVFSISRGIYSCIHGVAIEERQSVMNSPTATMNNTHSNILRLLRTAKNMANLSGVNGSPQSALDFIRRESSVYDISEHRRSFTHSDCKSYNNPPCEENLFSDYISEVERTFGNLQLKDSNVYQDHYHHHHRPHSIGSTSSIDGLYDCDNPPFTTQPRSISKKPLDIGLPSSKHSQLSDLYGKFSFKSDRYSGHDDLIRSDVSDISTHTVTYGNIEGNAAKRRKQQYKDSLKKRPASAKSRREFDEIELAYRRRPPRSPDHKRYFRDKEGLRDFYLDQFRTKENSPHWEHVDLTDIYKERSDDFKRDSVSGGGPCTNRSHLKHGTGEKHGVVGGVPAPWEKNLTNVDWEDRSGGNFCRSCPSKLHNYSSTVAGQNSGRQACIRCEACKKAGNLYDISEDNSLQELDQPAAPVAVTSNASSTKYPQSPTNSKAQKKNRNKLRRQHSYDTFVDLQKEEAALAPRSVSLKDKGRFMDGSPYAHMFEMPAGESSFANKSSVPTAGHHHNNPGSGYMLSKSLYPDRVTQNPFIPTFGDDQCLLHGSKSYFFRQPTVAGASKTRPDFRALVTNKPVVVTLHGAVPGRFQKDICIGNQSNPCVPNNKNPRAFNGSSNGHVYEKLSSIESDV

For one assay, the target named is NR2B-subtype NMDA receptors (Rattus norvegicus (Rat), UniProt P35439+Q00960). Nature of the assay: Radioligand binding assay (3H Ro 25-6981 competition, forebrain membranes). The settings on record: 3H Ro 25-6981 (4 nM), listed as 44, E-1, read-out: NR2B Binding Ki. Here is the method:
Radioligand Binding Assay. […] Buchy D; Klingelschmidt A; Messer J; Bleuel Z; Kemp J A; Richards J G. […] Thawed brains were homogenized using a Dounce homogenizer and centrifuged at 48000×g for 20 min. The pellet was resuspended in cold buffer and homogenized again using a Dounce homogenizer. […] After incubation for 1 hr at room temperature, the membrane bound radioligand was harvested on to GF/B filter plates (treated with 0.5% PEI for 1 hr at room temperature). The filter plates were dried at 50° C. for 20 mins, incubated with microscint 20 for 10 minutes and finally, the counts were read on TopCount (Perkin Elmer). […] CPM values were converted to % inhibition and the concentration response curves were plotted using custom made software. Each experiment was repeated at least twice to obtain the final binding Ki values for experimental compounds.
Consider `O=C1C(N2CCC(c3ccc(O)cc3)C(O)C2)CCN1Cc1ccc(F)cc1` (single isomer, unassigned) [Example 44, E-1, 1-(4-Fluorobenzyl)-3-(cis-3-hydroxy-4-(4-hydroxyphenyl)piperidin-1-yl)pyrrolidin-2-one], for which the pKi (in general, the negative decadic logarithm of the Ki, by convention in mol/L) was 6.19.

The assay is the same for the next values; noted with them: 3H Ro 25-6981 (4 nM), read-out: NR2B Binding Ki.
In the case of `O=C1C(N2CCC(c3ccc(O)cc3)C(F)(F)C2)CCN1Cc1ccccc1` (single isomer, unassigned) [Example 91, P-2, 1-Benzyl-3-(3,3-difluoro-4-(4-hydroxyphenyl)piperidin-1-yl)pyrrolidin-2-one], the pKi is 7.85.

For the molecule `C[C@@H](c1ccc(F)cc1)N1CC[C@@H](N2CC[C@H](c3ccc(O)cc3)[C@@H](F)C2)C1=O` [Example 50, P-2, (R)-3-((3R,4R)-3-fluoro-4-(4-hydroxyphenyl)piperidin-1-yl)-1-((S)-1-(4-fluorophenyl)ethyl)pyrrolidin-2-one], the pKi is 6.05. Same read-out and setting: next, `C[C@@H](c1ccc(F)cc1)N1CCC(N2CCC(c3ccc(O)cc3)C(F)(F)C2)C1=O` (single isomer, unassigned) [Example 56, P-3]: not above 5.30; `O=C1[C@H](N2CCC(c3ccc(O)cc3)C(F)(F)C2)CCN1c1ccc(OC(F)F)c(Cl)c1` (stereo partly drawn) [Example 101, P-2, (3R)-1-(3-Chloro-4-(difluoromethoxy)phenyl)-3-(3,3-difluoro-4-(4-hydroxyphenyl)-piperidin-1-yl)pyrrolidin-2-one]: 7.96. On the same count and under the same terms, then `O=C1[C@@H](N2CCC(c3ccc(O)cc3)C(F)(F)C2)CCN1Cc1ccc(F)c(F)c1` (single isomer, unassigned) [Example 108, P-1], with 5.92. As for `O=C1[C@H](N2CC[C@H](c3ccc(O)cc3)[C@@H](F)C2)CCN1Cc1ccc(Cl)c(F)c1` [Example 83, (R)-1-(4-Chloro-3-fluorobenzyl)-3-((3R,4R)-3-fluoro-4-(4-hydroxyphenyl)piperidin-1-yl)pyrrolidin-2-one], the pKi was 8.30.

Turning to `O=C1[C@H](N2CC[C@@H](c3ccc(O)cc3)[C@H](F)C2)CCN1c1ccc(OC(F)F)c(Cl)c1` [Example 63, (R)-1-(3-Chloro-4-(difluoromethoxy)phenyl)-3-((3S,4S)-3-fluoro-4-(4-hydroxyphenyl)-piperidin-1-yl)pyrrolidin-2-one], the pKi is 8.00. Take `C[C@@H](c1ccccc1)N1CC[C@H](N2CCC(c3ccc(O)cc3)CC2)C1=O` [Example 33a, (S)-3-(4-(4-Hydroxyphenyl)piperidin-1-yl)-1-((S)-1-phenylethyl)pyrrolidin-2-one]: the pKi is not above 5.30. The same measure, in the same setting: then `O=C1[C@@H](N2CC[C@@H](c3ccc(O)c(F)c3)[C@H](F)C2)CCN1Cc1ccc(C(F)F)cc1` [Example 117, P-1, (S)-1-(4-(difluoromethyl)benzyl)-3-((3S,4S)-3-fluoro-4-(3-fluoro-4-hydroxyphenyl)piperidin-1-yl)pyrrolidin-2-one], with 7.10; and `O=C1C(N2CC[C@H](c3ccc(O)cc3)[C@@H](F)C2)CCN1Cc1ccc(F)c(Cl)c1` (stereo partly drawn) [Example 89, 1-(3-Chloro-4-fluorobenzyl)-3-((3R,4R)-3-fluoro-4-(4-hydroxyphenyl)piperidin-1-yl)pyrrolidin-2-one], with 6.70; and `Cc1ccc(CN2CC[C@H](N3CC[C@H](c4ccc(O)cc4)[C@@H](F)C3)C2=O)cc1F` [Example 47, P-2, (S)-3-((3R,4R)-3-fluoro-4-(4-hydroxyphenyl)piperidin-1-yl)-1-(3-fluoro-4-methylbenzyl)pyrrolidin-2-one], with 6.33.

For `O=C1C(N2CCCC(c3ccc(O)cc3)CC2)CCN1Cc1ccccc1` (centres unmarked) [Example 37, 1-Benzyl-3-(4-(4-hydroxyphenyl)azepan-1-yl)pyrrolidin-2-one], the pKi was 7.68. `O=C1[C@@H](N2CCC(c3ccc(O)cc3)CC2)CCN1Cc1ccc(F)cc1` [Example 2a, (S)-1-(4-Fluorobenzyl)-3-(4-(4-hydroxyphenyl)-piperidin-1-yl)pyrrolidin-2-one]: the negative logarithm of the Ki (pKi) was 6.13.

Consider `O=C1[C@@H](N2CC[C@@H](c3ccc(O)cc3)[C@H](F)C2)CCN1c1ccc(OC(F)F)c(Cl)c1` [Example 62, (S)-1-(3-Chloro-4-(difluoromethoxy)phenyl)-3-((3S,4S)-3-fluoro-4-(4-hydroxyphenyl)-piperidin-1-yl)pyrrolidin-2-one], for which the pKi was 8.17.

For the molecule `O=C1C(N2CCC(c3ccc(O)cc3)CC2)CCN1Cc1ccc(O)cc1` (centres unmarked) [Example 24, 1-(4-Hydroxybenzyl)-3-(4-(4-hydroxyphenyl)piperidin-1-yl)pyrrolidin-2-one], the pKi was 8.33.

For the molecule `Cc1ccc(CN2CCC(N3CCC(c4ccc(O)cc4)CC3)C2=O)cc1F` (centres unmarked) [Example 19, 1-(3-Fluoro-4-methylbenzyl)-3-(4-(4-hydroxyphenyl)piperidin-1-yl)pyrrolidin-2-one], the pKi is 8.41. Still for that read-out and setting: then `C[C@@H](c1ccc(F)cc1)N1CCC(N2CCC(c3ccc(O)cc3)C(F)(F)C2)C1=O` (single isomer, unassigned) [Example 56, P-2], with 5.85; and `Cc1ccc(CN2CC[C@@H](N3CC[C@H](c4ccc(O)cc4)[C@@H](F)C3)C2=O)cc1F` [Example 47, P-4, (R)-3-((3R,4R)-3-fluoro-4-(4-hydroxyphenyl)piperidin-1-yl)-1-(3-fluoro-4-methylbenzyl)pyrrolidin-2-one], with 8.47. The same measure, in the same setting: then `Cc1ccc(CN2CC[C@@H](N3CC(c4ccc(O)cc4)C3)C2=O)cc1F` [Example 21a, (R)-1-(3-Fluoro-4-methylbenzyl)-3-(3-(4-hydroxyphenyl)azetidin-1-yl)pyrrolidin-2-one], with 7.43.

In the case of `Cc1ccc(CN2CC[C@H](N3CC(c4ccc(O)cc4)C3)C2=O)cc1F` [Example 21b, (S)-1-(3-Fluoro-4-methylbenzyl)-3-(3-(4-hydroxyphenyl)azetidin-1-yl)pyrrolidin-2-one], the pKi was 6.39. As to `C[C@@H](c1ccc(F)cc1)N1CC[C@@H](N2CC[C@@H](c3ccc(O)cc3)[C@H](F)C2)C1=O` [Example 50, P-4, (R)-3-((3S,4S)-3-fluoro-4-(4-hydroxyphenyl)piperidin-1-yl)-1-((S)-1-(4-fluorophenyl)-ethyl)pyrrolidin-2-one], the pKi is 5.89. For `O=C1[C@H](N2CCC(c3ccc(O)cc3)CC2)CCN1Cc1ccccc1` [Example 13b, (R)-1-Benzyl-3-(4-(4-hydroxyphenyl)piperidin-1-yl)pyrrolidin-2-one], the pKi was 8.80.

In the case of `O=C1[C@H](N2CCC(c3ccc(O)cc3)C(F)(F)C2)CCN1Cc1ccc(Cl)c(F)c1` (single isomer, unassigned) [Example 107, P-2], the pKi is 8.11. In the case of `O=C1C(N2CC(c3ccc(O)cc3)C2)CCN1Cc1ccc(F)cc1` (centres unmarked) [Example 11, 1-(4-Fluorobenzyl)-3-(3-(4-hydroxyphenyl)azetidin-1-yl)pyrrolidin-2-one], the pKi was 6.29. For `Cc1ccc(CN2CC[C@@H](N3CC[C@@H](c4ccc(O)cc4)[C@H](F)C3)C2=O)cc1F` [Example 47, P-3, (R)-3-((3S,4S)-3-fluoro-4-(4-hydroxyphenyl)piperidin-1-yl)-1-(3-fluoro-4-methylbenzyl)pyrrolidin-2-one], the pKi is 8.42. Still for that read-out and setting: then `O=C1C(N2CCC(c3ccc(O)cc3)CC2)CCCN1Cc1ccccc1` (centres unmarked) [Example 40, 1′-Benzyl-4-(4-hydroxyphenyl)-[1,3′-bipiperidin]-2′-one], with 6.32; and `Cc1ccc(CN2CCC(N3CC(c4ccc(O)cc4)C3)C2=O)cc1F` (centres unmarked) [Example 20, 1-(3-Fluoro-4-methylbenzyl)-3-(3-(4-hydroxyphenyl)azetidin-1-yl)pyrrolidin-2-one], with 7.37.

As for `O=C1[C@@H](N2CCC(c3ccc(O)cc3)C(F)(F)C2)CCN1c1ccc(OC(F)F)c(Cl)c1` (stereo partly drawn) [Example 101, P-1, (3S)-1-(3-Chloro-4-(difluoromethoxy)phenyl)-3-(3,3-difluoro-4-(4-hydroxyphenyl)-piperidin-1-yl)pyrrolidin-2-one], the pKi is 7.89. Still for that read-out and setting: next, `O=C1[C@@H](N2CCC(c3ccc(O)cc3)CC2)CCN1Cc1ccc(F)c(F)c1` [Example 6a, (S)-1-(3,4-Difluorobenzyl)-3-(4-(4-hydroxyphenyl)piperidin-1-yl)pyrrolidin-2-one]: 6.07; `O=C1C(N2CCC(c3ccc(O)c(F)c3)CC2)CCN1Cc1ccccc1` (centres unmarked) [Example 30, 1-Benzyl-3-(4-(3-fluoro-4-hydroxyphenyl)piperidin-1-yl)pyrrolidin-2-one]: 8.33; `Cc1cccc(CN2CCC(N3CCC(c4ccc(O)cc4)C(F)(F)C3)C2=O)c1` (centres unmarked) [Example 93, 3-(3,3-Difluoro-4-(4-hydroxyphenyl)piperidin-1-yl)-1-(3-methylbenzyl)pyrrolidin-2-one]: 7.17. Regarding `O=C1C(N2CC[C@@H](c3ccc(O)cc3)[C@H](F)C2)CCN1Cc1ccc(F)c(Cl)c1` (stereo partly drawn) [Example 73, 1-(3-Chloro-4-fluorobenzyl)-3-((3S,4S)-3-fluoro-4-(4-hydroxyphenyl)piperidin-1-yl)pyrrolidin-2-one], the pKi is 6.48. For the molecule `O=C1[C@H](N2CC[C@H](c3ccc(O)cc3)[C@@H](F)C2)CCN1Cc1ccc(Cl)cc1` [Example 81, (R)-1-(4-Chlorobenzyl)-3-((3R,4R)-3-fluoro-4-(4-hydroxyphenyl)piperidin-1-yl)pyrrolidin-2-one], the pKi was 8.42. Same read-out and setting: then `O=C1[C@H](N2CCC(c3ccc(O)cc3)CC2)CCN1Cc1ccc(F)cc1` [Example 2b, (R)-1-(4-Fluorobenzyl)-3-(4-(4-hydroxyphenyl)piperidin-1-yl)pyrrolidin-2-one], with 8.85.
